Measurements from the NIST ThermoML archive (doi:10.1016/j.jct.2011.02.018).
Numbers after ± are expanded uncertainties.

Test: xn = mol fraction of the nth substance listed
Conditions: 101 kPa, Liquid; for viscosity: Concentric cylinders viscometry; for mass density: Vibrating tube method

COC(C)(C)C [2-methoxy-2-methylpropane] + CC(C)O
Conditions | mass density, 293.15 K [kg/m3] | mass density, 298.15 K [kg/m3] | viscosity, 293.15 K [mPa·s] | viscosity, 298.15 K [mPa·s]
x1 = 0.0093 | 784.82 ± 0.23 | 780.63 ± 0.23 | 2.325 ± 0.095 | 1.988 ± 0.082
x1 = 0.0206 | 784.14 ± 0.23 | 779.92 ± 0.23 | 2.232 ± 0.091 | 1.919 ± 0.078
x1 = 0.0305 | 783.55 ± 0.23 | 779.33 ± 0.23 | 2.145 ± 0.088 | 1.853 ± 0.076
x1 = 0.0398 | 783 ± 0.23 | 778.77 ± 0.23 | 2.066 ± 0.085 | 1.773 ± 0.073
x1 = 0.0499 | 782.41 ± 0.23 | 778.17 ± 0.23 | 1.982 ± 0.082 | 1.719 ± 0.07
x1 = 0.0601 | 781.75 ± 0.23 | 777.51 ± 0.23 | 1.901 ± 0.078 | 1.653 ± 0.068
x1 = 0.0702 | 781.19 ± 0.23 | 776.93 ± 0.23 | 1.832 ± 0.075 | 1.595 ± 0.065
x1 = 0.0799 | 780.66 ± 0.23 | 776.38 ± 0.23 | 1.761 ± 0.072 | 1.538 ± 0.063
x1 = 0.0914 | 780.12 ± 0.23 | 775.85 ± 0.23 | 1.693 ± 0.069 | 1.479 ± 0.06
x1 = 0.1009 | 779.62 ± 0.23 | 775.32 ± 0.23 | 1.634 ± 0.067 | 1.432 ± 0.058
x1 = 0.1493 | 777.01 ± 0.23 | 772.62 ± 0.23 | 1.391 ± 0.057 | 1.235 ± 0.051
x1 = 0.2014 | 774.27 ± 0.23 | 769.81 ± 0.23 | 1.193 ± 0.049 | 1.057 ± 0.043
x1 = 0.244 | 771.96 ± 0.23 | 767.45 ± 0.23 | 1.05 ± 0.043 | 0.9465 ± 0.039
x1 = 0.2863 | 769.95 ± 0.23 | 765.38 ± 0.23 | 0.9352 ± 0.038 | 0.8443 ± 0.035
x1 = 0.3081 | 768.87 ± 0.23 | 764.26 ± 0.23 | 0.885 ± 0.036 | 0.8004 ± 0.033
x1 = 0.351 | 766.72 ± 0.23 | 762.06 ± 0.23 | 0.8018 ± 0.033 | 0.729 ± 0.03
x1 = 0.3995 | 764.43 ± 0.23 | 759.73 ± 0.23 | 0.7225 ± 0.03 | 0.6613 ± 0.027
x1 = 0.4516 | 762.08 ± 0.23 | 757.31 ± 0.24 | 0.6544 ± 0.027 | 0.6008 ± 0.025
x1 = 0.4999 | 759.97 ± 0.23 | 755.15 ± 0.24 | 0.6 ± 0.025 | 0.5578 ± 0.023
x1 = 0.5497 | 757.86 ± 0.24 | 752.98 ± 0.24 | 0.5545 ± 0.023 | 0.5128 ± 0.021
x1 = 0.5994 | 755.8 ± 0.24 | 750.88 ± 0.24 | 0.5151 ± 0.021 | 0.477 ± 0.02
x1 = 0.6493 | 753.77 ± 0.24 | 748.81 ± 0.24 | 0.4839 ± 0.02 | 0.4481 ± 0.019
x1 = 0.6993 | 751.8 ± 0.24 | 746.81 ± 0.24 | 0.4525 ± 0.019 | 0.4253 ± 0.018
x1 = 0.7499 | 749.84 ± 0.24 | 744.78 ± 0.24 | 0.4259 ± 0.018 | 0.398 ± 0.017
x1 = 0.8015 | 747.89 ± 0.24 | 742.8 ± 0.24 | 0.4066 ± 0.017 | 0.3819 ± 0.016
x1 = 0.8509 | 746.05 ± 0.24 | 740.92 ± 0.24 | 0.3844 ± 0.016 | 0.3613 ± 0.015
x1 = 0.8997 | 744.25 ± 0.24 | 739.1 ± 0.24 | 0.3678 ± 0.015 | 0.3459 ± 0.015
x1 = 0.9089 | 743.91 ± 0.24 | 738.76 ± 0.24 | 0.3718 ± 0.016 | 0.3448 ± 0.015
x1 = 0.9191 | 743.54 ± 0.24 | 738.35 ± 0.24 | 0.3617 ± 0.015 | 0.3398 ± 0.014
x1 = 0.9294 | 743.17 ± 0.24 | 737.99 ± 0.24 | 0.3609 ± 0.015 | 0.3374 ± 0.014
x1 = 0.9401 | 742.78 ± 0.24 | 737.6 ± 0.24 | 0.3548 ± 0.015 | 0.3317 ± 0.014
x1 = 0.9512 | 742.37 ± 0.24 | 737.18 ± 0.24 | 0.355 ± 0.015 | 0.3361 ± 0.014
x1 = 0.9587 | 742.11 ± 0.24 | 736.92 ± 0.24 | 0.3558 ± 0.015 | 0.3309 ± 0.014
x1 = 0.97 | 741.7 ± 0.24 | 736.51 ± 0.24 | 0.3466 ± 0.015 | 0.3247 ± 0.014
x1 = 0.9777 | 741.42 ± 0.24 | 736.23 ± 0.24 | 0.3447 ± 0.015 | 0.3228 ± 0.014
x1 = 0.9897 | 740.99 ± 0.24 | 735.8 ± 0.24 | 0.342 ± 0.014 | 0.3204 ± 0.014
